Laboratory results as given in the kinase profiling compilation of Christmann-Franck et al. (2016).
pIC50: −log10 of the molar value.

What was measured:
Test in all cases: radiometric filter-binding kinase assay
PRKCZ (human) = PRKCZ (human) (UniProt Q05513)
MAPK9 (human) = MAPK9 (human) (UniProt P45984)
GSK3B (human) = GSK3B (human) (UniProt P49841)
TBK1 (human) = TBK1 (human) (UniProt Q9UHD2)
PIM3 (human) = PIM3 (human) (UniProt Q86V86)
EEF2K (human) = EEF2K (human) (UniProt O00418)
[1] = system: AKT1 (human), P31749 [S473D]
NEK2 (human) = NEK2 (human) (UniProt P51955)
SYK (human) = SYK (human) (UniProt P43405)
MAPK3 (human) = MAPK3 (human) (UniProt P27361)
MAPK3 (human), sequence (P27361 whole entry, looked up): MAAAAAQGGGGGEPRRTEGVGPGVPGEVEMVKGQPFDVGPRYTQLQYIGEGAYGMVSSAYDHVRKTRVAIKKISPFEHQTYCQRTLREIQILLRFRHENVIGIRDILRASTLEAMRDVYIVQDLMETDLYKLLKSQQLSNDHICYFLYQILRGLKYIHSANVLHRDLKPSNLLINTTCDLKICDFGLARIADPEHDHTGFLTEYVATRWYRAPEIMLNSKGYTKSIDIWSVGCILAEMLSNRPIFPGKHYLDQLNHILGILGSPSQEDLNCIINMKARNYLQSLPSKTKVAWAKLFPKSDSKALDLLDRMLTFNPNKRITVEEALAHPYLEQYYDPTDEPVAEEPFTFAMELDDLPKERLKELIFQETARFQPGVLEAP

PIM2 (human) = PIM2 (human) (UniProt Q9P1W9)
CSNK2A1 (human) = CSNK2A1 (human) (UniProt P68400)
CSNK2A1 (human), sequence (P68400 whole entry, looked up): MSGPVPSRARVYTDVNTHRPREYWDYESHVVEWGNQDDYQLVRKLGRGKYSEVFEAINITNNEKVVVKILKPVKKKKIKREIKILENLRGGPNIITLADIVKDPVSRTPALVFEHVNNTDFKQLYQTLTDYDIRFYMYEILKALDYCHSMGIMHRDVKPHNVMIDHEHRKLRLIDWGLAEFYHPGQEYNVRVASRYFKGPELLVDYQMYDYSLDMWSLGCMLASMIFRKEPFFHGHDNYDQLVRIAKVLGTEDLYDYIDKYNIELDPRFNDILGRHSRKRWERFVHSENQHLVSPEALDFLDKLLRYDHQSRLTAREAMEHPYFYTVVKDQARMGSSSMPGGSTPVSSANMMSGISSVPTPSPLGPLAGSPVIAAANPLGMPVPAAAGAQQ

MKNK1 (human) = MKNK1 (human) (UniProt Q9BUB5)
MKNK1 (human), sequence (Q9BUB5 whole entry, looked up): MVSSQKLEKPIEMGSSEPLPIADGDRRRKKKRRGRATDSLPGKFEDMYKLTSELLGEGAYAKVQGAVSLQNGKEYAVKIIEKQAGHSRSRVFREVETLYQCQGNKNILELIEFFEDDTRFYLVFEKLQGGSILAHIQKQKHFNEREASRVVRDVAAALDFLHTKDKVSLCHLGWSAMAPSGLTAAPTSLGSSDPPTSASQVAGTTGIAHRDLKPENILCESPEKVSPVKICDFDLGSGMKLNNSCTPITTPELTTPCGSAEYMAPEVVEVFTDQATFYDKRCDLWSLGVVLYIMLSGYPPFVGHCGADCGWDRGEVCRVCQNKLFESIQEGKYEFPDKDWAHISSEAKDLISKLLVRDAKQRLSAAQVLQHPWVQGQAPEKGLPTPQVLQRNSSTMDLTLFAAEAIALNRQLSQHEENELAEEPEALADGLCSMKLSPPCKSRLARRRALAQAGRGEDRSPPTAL

PIM1 (human) = PIM1 (human) (UniProt P11309)
MAPKAPK5 (human) = MAPKAPK5 (human) (UniProt Q8IW41)
CSK (human) = CSK (human) (UniProt P41240)
CSK (human), sequence (P41240 whole entry, looked up): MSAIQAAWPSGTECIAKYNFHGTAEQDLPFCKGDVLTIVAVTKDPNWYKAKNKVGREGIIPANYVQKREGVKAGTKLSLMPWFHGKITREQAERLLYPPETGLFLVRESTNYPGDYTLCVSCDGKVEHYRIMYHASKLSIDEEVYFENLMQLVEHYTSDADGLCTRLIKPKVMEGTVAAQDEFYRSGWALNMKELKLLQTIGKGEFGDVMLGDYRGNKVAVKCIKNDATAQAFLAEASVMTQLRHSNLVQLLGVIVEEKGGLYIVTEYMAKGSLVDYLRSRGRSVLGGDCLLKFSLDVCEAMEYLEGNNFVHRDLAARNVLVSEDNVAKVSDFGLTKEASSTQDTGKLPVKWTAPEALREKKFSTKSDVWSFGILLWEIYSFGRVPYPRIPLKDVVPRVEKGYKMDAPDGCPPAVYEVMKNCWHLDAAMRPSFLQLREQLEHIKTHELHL

MARK3 (human) = MARK3 (human) (UniProt P27448)
[2] = system: PINK1 (Tribolium castaneum); details: accession and sequence are those of the human protein
CHEK1 (human) = CHEK1 (human) (UniProt O14757)
MAPK11 (human) = MAPK11 (human) (UniProt Q15759)
MAPK11 (human), sequence (Q15759 whole entry, looked up): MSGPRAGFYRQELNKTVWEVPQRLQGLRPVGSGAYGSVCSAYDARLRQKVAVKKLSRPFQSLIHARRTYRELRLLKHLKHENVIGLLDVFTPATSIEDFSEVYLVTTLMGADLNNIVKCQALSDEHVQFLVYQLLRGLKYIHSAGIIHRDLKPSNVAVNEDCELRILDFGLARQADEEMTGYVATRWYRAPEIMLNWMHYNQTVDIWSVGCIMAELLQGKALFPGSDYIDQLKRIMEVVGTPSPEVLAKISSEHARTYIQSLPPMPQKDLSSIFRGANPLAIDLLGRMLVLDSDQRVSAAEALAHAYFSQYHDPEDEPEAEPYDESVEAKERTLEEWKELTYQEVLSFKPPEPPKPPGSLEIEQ

MAP2K1 (human) = MAP2K1 (human) (UniProt Q02750)
MAPK14 (human) = MAPK14 (human) (UniProt Q16539)
PRKCA (human) = PRKCA (human) (UniProt P17252)
STK3 (human) = STK3 (human) (UniProt Q13188)
LCK (mouse) = details: accession and sequence are those of the human protein
[3] = target: PRKAA1 PRKAB2 PRKAG1 (human) (UniProt O43741+Q13131+P54619)
RPS6KA3 KD1 KD2 (human) = RPS6KA3 KD1 KD2 (human) (UniProt P51812)
PAK7 (human) = PAK7 (human) (UniProt Q9P286)
PAK7 (human), sequence (Q9P286 whole entry, looked up): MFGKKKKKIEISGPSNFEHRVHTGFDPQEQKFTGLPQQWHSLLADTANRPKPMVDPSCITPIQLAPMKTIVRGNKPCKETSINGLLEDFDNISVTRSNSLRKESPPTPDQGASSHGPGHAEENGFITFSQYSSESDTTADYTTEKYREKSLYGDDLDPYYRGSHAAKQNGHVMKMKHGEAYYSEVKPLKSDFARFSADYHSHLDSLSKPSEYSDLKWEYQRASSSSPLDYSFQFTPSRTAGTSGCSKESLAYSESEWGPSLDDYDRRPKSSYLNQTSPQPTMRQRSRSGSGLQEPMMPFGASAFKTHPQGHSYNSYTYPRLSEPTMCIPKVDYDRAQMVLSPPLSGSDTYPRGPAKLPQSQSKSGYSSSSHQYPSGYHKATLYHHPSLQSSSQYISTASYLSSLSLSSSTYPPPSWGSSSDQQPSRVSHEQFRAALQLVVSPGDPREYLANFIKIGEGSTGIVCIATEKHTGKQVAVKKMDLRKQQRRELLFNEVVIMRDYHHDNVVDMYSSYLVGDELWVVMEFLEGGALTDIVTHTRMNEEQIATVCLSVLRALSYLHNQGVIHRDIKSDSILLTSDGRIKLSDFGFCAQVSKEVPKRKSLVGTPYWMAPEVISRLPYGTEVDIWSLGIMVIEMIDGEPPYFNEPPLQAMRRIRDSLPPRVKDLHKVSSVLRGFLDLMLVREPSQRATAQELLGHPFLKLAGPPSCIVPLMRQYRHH

RPS6KA1 KD1 KD2 (human) = RPS6KA1 KD1 KD2 (human) (UniProt Q15418)
ROCK2 (rat) = details: accession and sequence are those of the human protein
PHKG1 (human) = PHKG1 (human) (UniProt Q16816)
FGFR1 (human) = FGFR1 (human) (UniProt P11362)
FGFR1 (human), sequence (P11362 whole entry, looked up): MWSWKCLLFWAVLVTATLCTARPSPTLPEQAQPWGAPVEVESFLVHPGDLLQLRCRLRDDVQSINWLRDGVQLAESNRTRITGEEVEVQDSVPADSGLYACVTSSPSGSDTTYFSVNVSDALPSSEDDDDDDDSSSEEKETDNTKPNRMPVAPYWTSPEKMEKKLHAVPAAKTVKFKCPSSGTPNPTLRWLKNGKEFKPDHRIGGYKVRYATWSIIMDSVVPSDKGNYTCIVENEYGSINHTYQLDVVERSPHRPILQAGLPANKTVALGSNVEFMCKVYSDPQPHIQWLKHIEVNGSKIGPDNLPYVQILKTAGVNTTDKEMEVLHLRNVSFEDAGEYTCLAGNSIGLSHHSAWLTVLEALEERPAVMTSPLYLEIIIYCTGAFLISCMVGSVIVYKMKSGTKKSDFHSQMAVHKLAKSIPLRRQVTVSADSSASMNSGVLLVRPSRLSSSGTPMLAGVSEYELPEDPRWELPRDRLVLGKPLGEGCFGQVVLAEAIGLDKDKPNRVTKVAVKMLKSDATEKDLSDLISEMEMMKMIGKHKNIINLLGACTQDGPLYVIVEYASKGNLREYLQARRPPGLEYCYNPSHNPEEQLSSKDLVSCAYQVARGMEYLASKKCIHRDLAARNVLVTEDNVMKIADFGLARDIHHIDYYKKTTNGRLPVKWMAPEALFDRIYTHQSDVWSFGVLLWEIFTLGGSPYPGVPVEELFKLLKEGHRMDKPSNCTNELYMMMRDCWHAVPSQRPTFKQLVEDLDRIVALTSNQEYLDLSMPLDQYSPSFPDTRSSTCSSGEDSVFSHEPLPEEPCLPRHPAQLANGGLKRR

CHEK2 (human) = CHEK2 (human) (UniProt O96017)
MAPK12 (human) = MAPK12 (human) (UniProt P53778)
MAPK12 (human), sequence (P53778 whole entry, looked up): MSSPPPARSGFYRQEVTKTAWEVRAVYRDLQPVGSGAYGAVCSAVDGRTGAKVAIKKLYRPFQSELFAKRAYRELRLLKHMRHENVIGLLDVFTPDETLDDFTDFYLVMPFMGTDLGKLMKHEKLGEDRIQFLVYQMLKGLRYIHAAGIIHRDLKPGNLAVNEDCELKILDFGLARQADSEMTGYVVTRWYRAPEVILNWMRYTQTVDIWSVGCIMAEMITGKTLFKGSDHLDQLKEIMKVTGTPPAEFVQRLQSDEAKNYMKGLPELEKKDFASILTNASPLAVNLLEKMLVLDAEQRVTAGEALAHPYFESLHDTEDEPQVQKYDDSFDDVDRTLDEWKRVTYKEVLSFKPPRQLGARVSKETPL

PKN2 (human) = PKN2 (human) (UniProt Q16513)
PKN2 (human), sequence (Q16513 whole entry, looked up): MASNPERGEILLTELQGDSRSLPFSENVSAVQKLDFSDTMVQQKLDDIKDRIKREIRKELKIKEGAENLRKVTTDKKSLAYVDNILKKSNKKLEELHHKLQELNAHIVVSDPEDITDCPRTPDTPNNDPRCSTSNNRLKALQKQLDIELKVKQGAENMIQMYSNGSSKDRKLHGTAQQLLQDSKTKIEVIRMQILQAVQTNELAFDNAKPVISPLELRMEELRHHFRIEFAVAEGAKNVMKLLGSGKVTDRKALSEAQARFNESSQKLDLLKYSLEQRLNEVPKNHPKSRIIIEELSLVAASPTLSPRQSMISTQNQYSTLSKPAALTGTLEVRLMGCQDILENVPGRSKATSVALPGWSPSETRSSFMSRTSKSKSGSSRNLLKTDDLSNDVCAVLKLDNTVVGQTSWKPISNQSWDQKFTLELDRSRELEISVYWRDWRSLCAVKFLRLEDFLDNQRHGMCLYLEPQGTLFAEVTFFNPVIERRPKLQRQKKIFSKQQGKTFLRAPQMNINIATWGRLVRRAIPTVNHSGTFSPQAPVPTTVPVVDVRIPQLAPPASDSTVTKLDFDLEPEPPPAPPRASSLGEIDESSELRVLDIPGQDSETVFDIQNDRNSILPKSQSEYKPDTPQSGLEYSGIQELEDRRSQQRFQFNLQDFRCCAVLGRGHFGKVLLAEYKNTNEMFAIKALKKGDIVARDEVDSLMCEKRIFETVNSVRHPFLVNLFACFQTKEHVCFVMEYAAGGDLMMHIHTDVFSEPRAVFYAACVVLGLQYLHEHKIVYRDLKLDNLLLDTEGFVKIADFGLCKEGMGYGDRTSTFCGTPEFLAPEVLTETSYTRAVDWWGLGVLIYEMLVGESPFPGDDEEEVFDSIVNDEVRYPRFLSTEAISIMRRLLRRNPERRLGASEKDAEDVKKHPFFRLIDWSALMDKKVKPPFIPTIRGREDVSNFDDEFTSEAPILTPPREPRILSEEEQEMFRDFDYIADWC

CDK2 CCNA2 (human) = CDK2 CCNA2 (human) (UniProt P20248+P24941)
CAMKK2 (human) = CAMKK2 (human) (UniProt Q96RR4)
PAK6 (human) = PAK6 (human) (UniProt Q9NQU5)
MELK (human) = MELK (human) (UniProt Q14680)
SRPK1 (human) = SRPK1 (human) (UniProt Q96SB4)

Structure (SMILES): COc1ccc2c(c1)[nH]c1c(C)nccc12
- residual activity (PRKCZ (human); compound 1.0 µM): 77%
- residual activity (MAPK9 (human); compound 1.0 µM): 84%
- residual activity (GSK3B (human); compound 1.0 µM): 87%
- residual activity (TBK1 (human); compound 1.0 µM): 87%
- residual activity (PIM3 (human); compound 1.0 µM): 74%
- residual activity (EEF2K (human); compound 1.0 µM): 73%
- residual activity ([1]; compound 1.0 µM): 100%
- residual activity (NEK2 (human); compound 1.0 µM): 115%
- residual activity (SYK (human); compound 1.0 µM): 93%
- residual activity (MAPK3 (human); compound 1.0 µM): 102%
- residual activity (PIM2 (human); compound 1.0 µM): 101%
- pIC50 (CSNK2A1 (human)): < 4.40
- residual activity (CSNK2A1 (human); compound 1.0 µM): 83%
- residual activity (MKNK1 (human); compound 1.0 µM): 81%
- residual activity (PIM1 (human); compound 1.0 µM): 74%
- residual activity (MAPKAPK5 (human); compound 1.0 µM): 97%
- residual activity (CSK (human); compound 1.0 µM): 103%
- residual activity (MARK3 (human); compound 1.0 µM): 107%
- residual activity ([2]; compound 1.0 µM): 98%
- residual activity (CHEK1 (human); compound 1.0 µM): 94%
- residual activity (MAPK11 (human); compound 1.0 µM): 92%
- residual activity (MAP2K1 (human); compound 1.0 µM): 102%
- residual activity (MAPK14 (human); compound 1.0 µM): 77%
- residual activity (PRKCA (human); compound 1.0 µM): 94%
- residual activity (STK3 (human); compound 1.0 µM): 81%
- residual activity (LCK (mouse); compound 1.0 µM): 88%
- residual activity ([3]; compound 1.0 µM): 106%
- residual activity (RPS6KA3 KD1 KD2 (human); compound 1.0 µM): 78%
- residual activity (PAK7 (human); compound 1.0 µM): 90%
- residual activity (RPS6KA1 KD1 KD2 (human); compound 1.0 µM): 93%
- residual activity (ROCK2 (rat); compound 1.0 µM): 102%
- residual activity (PHKG1 (human); compound 1.0 µM): 84%
- residual activity (FGFR1 (human); compound 1.0 µM): 103%
- residual activity (CHEK2 (human); compound 1.0 µM): 95%
- residual activity (MAPK12 (human); compound 1.0 µM): 67%
- residual activity (PKN2 (human); compound 1.0 µM): 61%
- residual activity (CDK2 CCNA2 (human); compound 1.0 µM): 80%
- residual activity (CAMKK2 (human); compound 1.0 µM): 97%
- residual activity (PAK6 (human); compound 1.0 µM): 107%
- residual activity (MELK (human); compound 1.0 µM): 93%
- residual activity (SRPK1 (human); compound 1.0 µM): 78%

Structure (SMILES): Oc1ccc2c(c1)C(O)c1cc(O)ccc1-2
- residual activity (PRKCZ (human); compound 20.0 µM): 89%
- residual activity (MAPK9 (human); compound 20.0 µM): 99%
- residual activity (GSK3B (human); compound 20.0 µM): 54%
- residual activity (TBK1 (human); compound 20.0 µM): 123%
- residual activity (PIM3 (human); compound 20.0 µM): 21%
- residual activity (EEF2K (human); compound 20.0 µM): 104%
- residual activity ([1]; compound 20.0 µM): 115%
- residual activity (NEK2 (human); compound 20.0 µM): 84%
- residual activity (SYK (human); compound 20.0 µM): 121%
- residual activity (MAPK3 (human); compound 20.0 µM): 100%
- residual activity (PIM2 (human); compound 20.0 µM): 66%
- pIC50 (CSNK2A1 (human)): < 4.40
- residual activity (CSNK2A1 (human); compound 20.0 µM): 52%
- residual activity (MKNK1 (human); compound 20.0 µM): 71%
- residual activity (PIM1 (human); compound 20.0 µM): 19%
- residual activity (MAPKAPK5 (human); compound 20.0 µM): 61%
- residual activity (CSK (human); compound 20.0 µM): 98%
- residual activity (MARK3 (human); compound 20.0 µM): 64%
- residual activity ([2]; compound 20.0 µM): 68%
- residual activity (CHEK1 (human); compound 20.0 µM): 74%
- residual activity (MAPK11 (human); compound 20.0 µM): 106%
- residual activity (MAP2K1 (human); compound 20.0 µM): 122%
- residual activity (MAPK14 (human); compound 20.0 µM): 84%
- residual activity (PRKCA (human); compound 20.0 µM): 94%
- residual activity (STK3 (human); compound 20.0 µM): 39%
- residual activity (LCK (mouse); compound 20.0 µM): 93%
- residual activity ([3]; compound 20.0 µM): 99%
- residual activity (RPS6KA3 KD1 KD2 (human); compound 20.0 µM): 80%
- residual activity (PAK7 (human); compound 20.0 µM): 64%
- residual activity (RPS6KA1 KD1 KD2 (human); compound 20.0 µM): 70%
- residual activity (ROCK2 (rat); compound 20.0 µM): 78%
- residual activity (PHKG1 (human); compound 20.0 µM): 77%
- residual activity (FGFR1 (human); compound 20.0 µM): 62%
- residual activity (CHEK2 (human); compound 20.0 µM): 64%
- residual activity (MAPK12 (human); compound 20.0 µM): 85%
- residual activity (PKN2 (human); compound 20.0 µM): 86%
- residual activity (CDK2 CCNA2 (human); compound 20.0 µM): 54%
- residual activity (CAMKK2 (human); compound 20.0 µM): 91%
- residual activity (PAK6 (human); compound 20.0 µM): 90%
- residual activity (MELK (human); compound 20.0 µM): 70%
- residual activity (SRPK1 (human); compound 20.0 µM): 80%

Structure (SMILES): Oc1ccc2c(c1)oc1c3ccccc3c(O)cc21
- residual activity (PRKCZ (human); compound 1.0 µM): 70%
- residual activity (MAPK9 (human); compound 1.0 µM): 102%
- residual activity (GSK3B (human); compound 1.0 µM): 77%
- residual activity (TBK1 (human); compound 1.0 µM): 80%
- residual activity (PIM3 (human); compound 1.0 µM): 17%
- residual activity (EEF2K (human); compound 1.0 µM): 85%
- residual activity ([1]; compound 1.0 µM): 90%
- residual activity (NEK2 (human); compound 1.0 µM): 98%
- residual activity (SYK (human); compound 1.0 µM): 84%
- residual activity (MAPK3 (human); compound 1.0 µM): 86%
- residual activity (PIM2 (human); compound 1.0 µM): 40%
- pIC50 (CSNK2A1 (human)): 5.40
- residual activity (CSNK2A1 (human); compound 1.0 µM): 87%
- residual activity (MKNK1 (human); compound 1.0 µM): 66%
- residual activity (PIM1 (human); compound 1.0 µM): 10%
- residual activity (MAPKAPK5 (human); compound 1.0 µM): 95%
- residual activity (CSK (human); compound 1.0 µM): 98%
- residual activity (MARK3 (human); compound 1.0 µM): 80%
- residual activity ([2]; compound 1.0 µM): 80%
- residual activity (CHEK1 (human); compound 1.0 µM): 92%
- residual activity (MAPK11 (human); compound 1.0 µM): 87%
- residual activity (MAP2K1 (human); compound 1.0 µM): 94%
- residual activity (MAPK14 (human); compound 1.0 µM): 83%
- residual activity (PRKCA (human); compound 1.0 µM): 101%
- residual activity (STK3 (human); compound 1.0 µM): 64%
- residual activity (LCK (mouse); compound 1.0 µM): 92%
- residual activity ([3]; compound 1.0 µM): 91%
- residual activity (RPS6KA3 KD1 KD2 (human); compound 1.0 µM): 40%
- residual activity (PAK7 (human); compound 1.0 µM): 94%
- residual activity (RPS6KA1 KD1 KD2 (human); compound 1.0 µM): 83%
- residual activity (ROCK2 (rat); compound 1.0 µM): 92%
- residual activity (PHKG1 (human); compound 1.0 µM): 45%
- residual activity (FGFR1 (human); compound 1.0 µM): 77%
- residual activity (CHEK2 (human); compound 1.0 µM): 79%
- residual activity (MAPK12 (human); compound 1.0 µM): 82%
- residual activity (PKN2 (human); compound 1.0 µM): 35%
- residual activity (CDK2 CCNA2 (human); compound 1.0 µM): 51%
- residual activity (CAMKK2 (human); compound 1.0 µM): 76%
- residual activity (PAK6 (human); compound 1.0 µM): 121%
- residual activity (MELK (human); compound 1.0 µM): 20%
- residual activity (SRPK1 (human); compound 1.0 µM): 83%
